Results from US8586708B2, “Monovalent streptavidin compositions” (Massachusetts Institute of Technology, priority 2005, dated 2013).
Read-outs that look alike come from different tables or passages of the source.

Columns and labels:
[1] = system: biotinylated AP-CFP-TM on HeLa cells; test: Staining of biotinylated AP-CFP-TM on HeLa cells with Alexa Fluor 568 conjugates; type: cell-based; settings: 10 μg/mL Alexa Fluor 568 conjugate, 10 min at 4° C.
Description: (§1) Enzymatic biotinylation and imaging of HeLa transfectants were performed as previously described (Howarth, M. et al. Proc. Natl. Acad. Sci. USA 102: 7583-7588, 2005), except instead of 10 μM biotin and 1 mM ATP, we added 10 μM biotin-AMP (synthesized according to Coleman and Huang; Coleman, T. M. and Huang, F. Chem. Biol. 9: 1227-1236, 2002) to give equivalent biotinylation but minimizing the risk of purinoreceptor activation by ATP (Rathbone, M. P. et al., Prog. Neurobiol. 59: 663-690, 1999). […] Biotinylation of neurons was performed at day in vitro (DIV) 8 in Hanks' Balanced Salt Solution (HBSS) (Invitrogen) with 0.2 μM biotin ligase and 10 μM biotin-AMP for 5 min at 37° C. […] Neurons were washed with NeuroBasal media (Invitrogen) supplemented with B-27 (Invitrogen), 50 U/mL penicillin, 50 μg/mL streptomycin, and 0.2 mM L-glutamine and chased in the same medium for 0 or 2 hr at 37° C. Cells were then fixed in −20° C. methanol. […]
Images of HeLa cells were collected on a Zeiss Axiovert 200M inverted epifluorescence microscope using a 40× oil-immersion lens and a MicroMAX CCD camera (Roper Scientific; Tucson, Ariz.). CFP (420DF20 excitation, 450DRLP dichroic, 475DF40 emission) and Alexa568 (560DF20 excitation, 585DRLP dichroic, 605DF30 emission) images were collected and analyzed using OpenLab software (Improvision; Lexington, Mass.). Fluorescence images were background-corrected. […] Images were scaled to 16 bits and analyzed in Northern Eclipse (Empix Imaging; Ontario, Canada) with user-written software. […] Results were then calculated in terms of clusters per micrometer of dendrite. For assessment of pre-synaptic terminals, clusters were determined as before and average grey levels of clusters were compared between transfected dendrites and untransfected dendrites within the same field of view. […] “n” represents the number of transfected neurons for which clusters were measured. […]

[2] = system: AP-neuroligin-1 on hippocampal neurons; test: Clustering of biotinylated AP-neuroligin-1 on hippocampal neurons; type: cell-based, rat; settings: for AP-neuroligin-1 clusters/μm: two hour incubation at 37° C., ± s.e.m., n=9; for AP-neuroligin-1 staining pattern: zero hours
Description: HeLa cells were grown in Dulbecco's Modified Eagle Medium (DMEM) with 10% Fetal Calf Serum, 50 U/mL penicillin and 50 μg/mL streptomycin. HeLa stably expressing AP-CFP-TM or Ala-CFP-TM have been previously described (Howarth, M. et al. Proc. Natl. Acad. Sci. USA 102: 7583-7588, 2005). Dissociated primary neuronal cultures were prepared from Embryonic Day 18 or 19 (E18/19) rats and transfected with Lipofectamine 2000 at DIV6 as in Levinson et al. (Levinson, J. N. et al. J. Biol. Chem. 280: 17312-17319, 2005).
as §1, with “methanol. There was no signal from wild-type streptavidin labeling if neurons were instead transfected with Ala-neuroligin-1 containing a point mutation in AP, confirming the specificity of labeling (Howarth, M. et al. Proc. Natl. Acad. Sci. USA 102: 7583-7588, 2005). To observe synapse formation, cells were biotinylated and stained with streptavidin as above, biotinylation and streptavidin staining was repeated at 6 hr, and then after 24 hr total chase cells were fixed in methanol.” for “methanol.”
Images of HeLa cells were collected on a Zeiss Axiovert 200M inverted epifluorescence microscope using a 40× oil-immersion lens and a MicroMAX CCD camera (Roper Scientific; Tucson, Ariz.). CFP (420DF20 excitation, 450DRLP dichroic, 475DF40 emission) and Alexa568 (560DF20 excitation, 585DRLP dichroic, 605DF30 emission) images were collected and analyzed using OpenLab software (Improvision; Lexington, Mass.). Fluorescence images were background-corrected. […] Images were scaled to 16 bits and analyzed in Northern Eclipse (Empix Imaging; Ontario, Canada) with user-written software. […] Results were then calculated in terms of clusters per micrometer of dendrite. For assessment of pre-synaptic terminals, clusters were determined as before and average grey levels of clusters were compared between transfected dendrites and untransfected dendrites within the same field of view. […]

[3] = Off-rate of 3H-biotin with cold biotin chase and precipitation; type: binding; settings: 10 nM 3H-biotin, 1 μM streptavidin, 50 μM cold biotin, 37° C.; ± s.e.m.
Description: (Green, N. M. Methods in Enzymol. 184: 51-67, 1990). Dissociation was then initiated by addition of cold biotin at a final concentration of 50 μM and time-points taken over 5 hours at 37° C. 50 μL aliquots were removed and added to 200 μL 0.2M ZnSO4 chilled on ice, followed by 200 μL 0.2 M NaOH. The protein precipitate was pelleted by centrifugation at 16,500 g for 5 min, and ^3H-biotin in the supernatant was measured by liquid scintillation counting. Data were plotted as ln(fraction bound) versus time, and fit to a straight line by linear regression. Dissociation rates were deduced from the slope of the line and the equation: ln(fraction bound)=−koff(t) where fraction bound=(total ^3H-biotin−free ^3H-biotin at timepoint)/(total ^3H-biotin−free ^3H-biotin before cold biotin chase).

[4] = Stability of monovalent streptavidin to subunit exchange (SDS-PAGE); type: physicochemical; settings: for A1D3 rearranged into D4: PBS
Description: Methods described in the Methods section above herein were used for the following production and testing of monovalent streptavidin. Tests were performed to determine whether monovalent streptavidin would rearrange its subunit composition over time.

[5] = Thermostability assay of tetramer (heat, SDS-PAGE); type: physicochemical; settings: 3 min, PBS
Description: 2.3 μM wild-type streptavidin or chimeric streptavidin in PBS was heated at the indicated temperature for 3 min in a PTC-200 PCR machine (MJ Research; Waltham, Mass.) and then immediately placed on ice (Bayer, E. A. et al. Electrophoresis 17: 1319-1324, 1996). Samples were mixed with 6× SDS-PAGE loading buffer and loaded onto a 16% polyacrylamide gel.

[6] = Kd of D4 by 3H-biotin binding and protein precipitation
Description: After incubation at room temperature for 20 hr, the protein was precipitated by adding 50 μL to 200 μL 0.2 M ZnSO4 followed by 200 μL 0.2 M NaOH. The protein precipitate was pelleted by centrifugation at 16,500 g for 5 min. The biotin bound by D4 was calculated from the total ^3H -biotin added minus the ^3H -biotin in the supernatant. The Kd was obtained using a nonlinear regression analysis (one-site binding hyperbola) with SigmaPlot (Systat Software; Point Richmond, Calif.).

[7] = literature value; read-out: Kd for biotin; cited from earlier work
biotinylated cells = test: Binding to biotinylated cells; type: cell-based

Row | Substance | Alexa staining of biotinylated AP-CFP-TM [1] | AP-neuroligin-1 clusters/μm [2] [clusters/μm] | AP-neuroligin-1 staining pattern [2] | off-rate from biotin [3] | other results
1 | A1D3: chimeric streptavidin tetramer with one Alive (wild-type, His6-tagged) subunit and three Dead (N23A, S27D, S45A) subunits [Tetramer A1D3] | detected equally well | 0.087±0.021 | diffuse surface staining | 6.14±0.19×10^−5 s^−1 | A1D3 rearranged into D4 ([4]; 37° C. incubation for one day): 2%; Formation of A2D2 from subunit exchange ([4]; 37° C. one day or room temperature one week): not detected; A1D3 rearranged into D4 ([4]; room temperature incubation for one week): 3%; tetramer stability to heat denaturation ([5]; 100° C.): A significant fraction of A1D3 remained tetrameric; thermostability compared with wild-type streptavidin ([5]; various temperatures): little difference
2 | D4: streptavidin with 4 dead subunits (N23A, S27D, S45A; SEQ ID NO:3) [Tetramer D4] | no detectable staining |  |  |  | biotin binding (in words) [6]: negligible biotin binding; Kd ([6]; 24 μM D4, 0-500 μM 3H-biotin, room temperature 20 hr, ± s.e.m.): 918 ± 0.0117 µM
3 | N23A, S27D: double mutant streptavidin tetramer with one of the weakest reported affinities for biotin |  |  |  |  | Kd [7]: 71 µM; binding to biotinylated cells (biotinylated cells): still bound
4 | wild-type streptavidin: wild-type core streptavidin tetramer with 4 biotin binding sites (SEQ ID NO:2) [reference compound] | detected equally well | 0.266±0.011 | diffuse surface staining | 5.17±0.25×10^−5 s^−1 | 
